Data set [1] in a line: Toxicity in Gambusia affinis. Format: organism-based. Conditions: in vivo.
A short description of data set [2]: Toxicity in Artemia salina. Format: organism-based. Conditions: in vivo.

Consider one molecule from ChEMBL document CHEMBL1146448, “Cavernosolide, a New Sesterterpene from a Tyrrhenian Sponge” (J Nat Prod, 1997).

The structures appear in SMILES notation. In brackets after ≈: the same amount, converted by molar mass.

By LC50 is commonly meant the concentration lethal to half of the exposed cells or organisms. Lower therefore signals a more lethal substance.

For `CC(=O)O[C@H]1O[C@@H](C2=CC(=O)O[C@@H]2O)C[C@@H]2[C@@H]1CC[C@H]1[C@@]2(C)CC[C@H]2C(C)(C)CCC[C@]12C` [CAVERNOSOLIDE], the results for the LC50 in data set [1] and in data set [2] were 0.75 µg/mL (≈ 1.63 µM) and 0.37 µg/mL (≈ 0.803 µM), respectively.
